Tests used:
Details in all cases: incubation time: 72 h
MDA-MB-453 [1] = assay: normalised viability (% of control), CellTiter-Blue; higher = more viable cells (about 100 = DMSO control)
Method: (§1)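 DSRT, CellTiter-Blue viability, 72 h incubation. Signal is normalised to DMSO and benzethonium chloride controls. Value is the normalised response at dose 3.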

MFM-223 = assay: as above
Method: as §1

MDA-MB-468 [2] = assay: as above
Method: as §1

BT-549 [3] = assay: as above
Method: as §1

HDQ-P1 [4] = assay: as above
Method: as §1

CAL-85-1 [5] = assay: as above
Method: as §1

DU-4475 = assay: as above
Method: as §1

MDA-MB-231 = assay: as above
Method: as §1

MDA-MB-436 [6] = assay: as above
Method: as §1

HCC1143 = assay: as above
Method: as §1

HCC1599 = assay: as above
Method: as §1

HCC1937 = assay: as above
Method: as §1

CAL-148 [7] = assay: as above
Method: as §1

BT-474 = assay: as above
Method: as §1

Hs578T = assay: as above
Method: as §1

SK-BR-3 [8] = assay: as above
Method: as §1

CAL-120 = assay: as above
Method: as §1

CAL-51 [9] = assay: as above
Method: as §1

MDA-MB-453 [10] = assay: normalised viability (% of control), CellTiter-Blue; higher = more viable cells (about 100 = DMSO control); remark: listed apart in the source
Summary of the method: (§2)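 Breast cancer cell lines were treated for 72 h in 384-well format and measured by CellTiter-Blue fluorescence at 560/590 nm. Results were normalised per plate to vehicle (100) and a positive kill control (0). The entry is normalised viability at a single listed concentration of the series.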

MDA-MB-468 [11] = assay: as above; remark: listed apart in the source
Summary of the method: as §2

BT-549 [12] = assay: as above; remark: listed apart in the source
Summary of the method: as §2

CAL-85-1 [13] = assay: as above; remark: listed apart in the source
Summary of the method: as §2

MDA-MB-453 [14] = assay: drug sensitivity score (DSS), CellTiter-Glo (DSS (AUC-based score)); higher = stronger drug effect (viability inhibition or cytotoxicity); extreme values may be limits of the assay
Summary of the method: (§3)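 Each compound occupied 5 concentrations in 10-fold steps over its own 10,000-fold range in 384-well plates, into which breast cancer cell lines were seeded as 20 µl suspension. Following 72 h of incubation, CellTox Green fluorescence (485/520 nm) was measured, and CellTiter-Glo luminescence was measured after 10 min at room temperature. Plates were individually normalised to 0.1 % DMSO and a positive kill control. From the area under the fitted dose-response curve, a drug sensitivity score was calculated.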

HDQ-P1 [15] = assay: as above
Summary of the method: as §3

MCF-10A = assay: as above
Summary of the method: as §3

MDA-MB-436 [16] = assay: as above
Summary of the method: as §3

CAL-148 [17] = assay: as above
Summary of the method: as §3

SK-BR-3 [18] = assay: as above
Summary of the method: as §3

CAL-51 [19] = assay: as above
Summary of the method: as §3

O=P1(N(CCCl)CCCl)NCCCO1 (centres undefined) [Cyclophosphamide]
Details | normalised viability [%]
BT-474, 400 nM | 118
BT-549 [3], 400 nM | 117
BT-549 [12], 40 nM | 94.3
BT-549 [12], 4000 nM | 94.9
BT-549 [12], 40000 nM | 95.2
CAL-51 [9], 40 nM | 107
CAL-85-1 [5], 40 nM | 101
CAL-85-1 [13], 12 nM | 98.8
CAL-85-1 [13], 120 nM | 89.9
CAL-85-1 [13], 400 nM | 97.5
CAL-120, 400 nM | 85.6
CAL-148 [7], 40 nM | 103
DU-4475, 40 nM | 103
HCC1143, 400 nM | 90.2
HCC1599, 400 nM | 109
HCC1937, 400 nM | 99.8
HDQ-P1 [4], 40 nM | 97.9
Hs578T, 400 nM | 93
MDA-MB-231, 400 nM | 97.8
MDA-MB-436 [6], 400 nM | 101
MDA-MB-453 [1], 40 nM | 110
MDA-MB-453 [10], 12 nM | 105
MDA-MB-453 [10], 120 nM | 105
MDA-MB-453 [10], 400 nM | 111
MDA-MB-468 [2], 400 nM | 109
MDA-MB-468 [11], 40 nM | 102
MDA-MB-468 [11], 4000 nM | 100
MDA-MB-468 [11], 40000 nM | 106
MFM-223, 400 nM | 91.1
SK-BR-3 [8], 400 nM | 91.6

Details | drug sensitivity score
CAL-51 [19] | 0
CAL-148 [17] | 0
HDQ-P1 [15] | 0
MCF-10A | 0
MDA-MB-436 [16] | 0
MDA-MB-453 [14] | 0
SK-BR-3 [18] | 0

O=C(/C=C/c1cccc(S(=O)(=O)Nc2ccccc2)c1)NO [Belinostat]
Details | normalised viability [%]
BT-474, 100 nM | 90.4
BT-549 [3], 100 nM | 91.2
BT-549 [12], 10 nM | 108
BT-549 [12], 1000 nM | 67.8
BT-549 [12], 10000 nM | 13.1
CAL-51 [9], 10 nM | 105
CAL-85-1 [5], 10 nM | 89.7
CAL-85-1 [13], 3 nM | 95.7
CAL-85-1 [13], 30 nM | 79.5
CAL-85-1 [13], 100 nM | 86.8
CAL-120, 100 nM | 66.3
CAL-148 [7], 10 nM | 91
DU-4475, 10 nM | 109
HCC1143, 100 nM | 96.6
HCC1599, 100 nM | 82.8
HCC1937, 100 nM | 92.4
HDQ-P1 [4], 10 nM | 121
Hs578T, 100 nM | 70.2
MDA-MB-231, 100 nM | 93.7
MDA-MB-436 [6], 100 nM | 95.3
MDA-MB-453 [1], 10 nM | 95.8
MDA-MB-453 [10], 3 nM | 90.7
MDA-MB-453 [10], 30 nM | 82.5
MDA-MB-453 [10], 100 nM | 64.6
MDA-MB-468 [2], 100 nM | 88.5
MDA-MB-468 [11], 10 nM | 112
MDA-MB-468 [11], 1000 nM | 66.9
MDA-MB-468 [11], 10000 nM | 16.3
MFM-223, 100 nM | 96.4
SK-BR-3 [8], 100 nM | 65.7

Details | drug sensitivity score
CAL-51 [19] | 18.6
CAL-148 [17] | 16.1
HDQ-P1 [15] | 8.05
MCF-10A | 10.8
MDA-MB-436 [16] | 10.5
MDA-MB-453 [14] | 20.4
SK-BR-3 [18] | 18.3

From the supplement of paper PMC4862054
